Data reported in patent US20200129509A1, “DOSING REGIMEN” (Cyclacel Limited, priority 2018, published 2020).
Where two headings read alike, the source gives them in different places.

Legend:
[1] = system: AML cell lines; test: Combination of CNDAC with hypomethylating agents in AML cell lines; format: cell-based; conditions: more apparent if cells are treated with hypomethylating agents first
Experimental: Previous studies by the applicant have shown that in AML cell lines, the active metabolite of sapacitabine, CNDAC, is synergistic with hypomethylating agents and the synergy is more apparent if cells are treated with hypomethylating agents first. The present invention relates to the identification of new and previously undefined subgroups of AML patients for which treatment with an alternating regimen of sapacitabine and decitabine is particularly effective.

[2] = system: AML patients
Description: For 482 patients randomized to receive decitabine/sapacitabine (n=241) vs. decitabine only (n=241), randomization was stratified by the presence of antecedent MDS or MPN, peripheral white blood cell count (WBC <10,000 vs. ≥10,000) and bone marrow blast percentage (≥50% vs. <50%).

[3] = system: colon cancer; conditions: model of colon cancer; cited from earlier work
[4] = system: patients with a variety of cancers; conditions: phase I, humans; cited from earlier work
[5] = system: cell line that is resistant to cytarabine; conditions: cited from earlier work
[6] = Antecedent MDS/MPN No and WBC ≥10,000
[7] = Antecedent MDS/MPN Yes and WBC <10,000
[8] = SWOG Not unfavourable and WBC <10,000
[9] = SWOG Unfavourable and WBC ≥10,000
[10] = all randomized patients (n=241 per arm)

Compound: N#C[C@H]1[C@H](O)[C@@H](CO)O[C@H]1n1ccc(N)nc1=O [CNDAC, 2′-C-cyano-2′-deoxy-1-β-D-arabino-pentofuranosyl cytosine]
- interaction with hypomethylating agents [1]: synergistic

Compound: Nc1ncn([C@H]2C[C@H](O)[C@@H](CO)O2)c(=O)n1 [Decitabine, 4-amino-1-(2-deoxy-β-D-erythro-pentofuranosyl)-1,3,5-triazin-2(1H)-one]
- 1-year survival [2, 6]: 36.7%
- CR rate [2, 6]: 18.4%
- Median overall survival [2, 6]: 5.5 months
- 1-year survival [2, 7]: 27.5%
- CR rate [2, 7]: 2.5%
- Median overall survival [2, 7]: 4.9 months
- 1-year survival ([2]; Antecedent MDS/MPN: No): 35.5%
- CR median duration ([2]; Antecedent MDS/MPN: No): 10.4 months
- CR rate ([2]; Antecedent MDS/MPN: No): 12.9%
- Median overall survival ([2]; Antecedent MDS/MPN: No): 6.7 months
- 1-year survival ([2]; Antecedent MDS/MPN: Yes): 32.9%
- CR median duration ([2]; Antecedent MDS/MPN: Yes): 7.1 months
- CR rate ([2]; Antecedent MDS/MPN: Yes): 5.7%
- Median overall survival ([2]; Antecedent MDS/MPN: Yes): 5.0 months
- 1-year survival [2, 8]: 31.8%
- CR rate [2, 8]: 5.7%
- Median overall survival [2, 8]: 5.6 months
- 1-year survival [2, 9]: 30.0%
- CR rate [2, 9]: 0%
- Median overall survival [2, 9]: 3.0 months
- 1-year survival ([2]; SWOG category Not Unfavourable): 35.9%
- CR rate ([2]; SWOG category Not Unfavourable): 11.6%
- Median overall survival ([2]; SWOG category Not Unfavourable): 5.7 months
- 1-year survival ([2]; SWOG category Unfavourable): 33.0%
- CR rate ([2]; SWOG category Unfavourable): 9.6%
- Median overall survival ([2]; SWOG category Unfavourable): 5.7 months
- Patients aged 80 and over, median overall survival ([2]; aged 80 and over, <10,000 WBC): 4.2 months
- Median overall survival [2, 10]: 5.7 months
- patients achieved CR [2, 10]: 10.8%
- 1-year survival ([2]; patients with <10,000 WBC): 32.9%
- CR median duration ([2]; patients with <10,000 WBC): 10.4 months
- CR rate ([2]; patients with <10,000 WBC): 8.6%
- Median overall survival ([2]; patients with <10,000 WBC): 5.8 months
- 1-year survival ([2]; patients with ≥10,000 WBC): 38.5%
- CR median duration ([2]; patients with ≥10,000 WBC): 10.1 months
- CR rate ([2]; patients with ≥10,000 WBC): 15.2%
- Median overall survival ([2]; patients with ≥10,000 WBC): 5.5 months

Compound: CCCCCCCCCCCCCCCC(=O)Nc1ccn([C@@H]2O[C@H](CO)[C@@H](O)[C@@H]2C#N)c(=O)n1 [Sapacitabine, 1-(2-C-cyano-2-deoxy-β-D-arabino-pentofuranosyl)-N^4-palmitoyl cytosine]
- anticancer activity [3]: strong anticancer activity
- increasing survival and preventing spread of colon cancer metastases to the liver, compared with gemcitabine or 5-FU [3]: superior to either gemcitabine or 5-FU
- dose-limiting toxicity [4]: myelosuppression
- tolerability [4]: well tolerated

Compound: Nc1ccn([C@@H]2O[C@H](CO)[C@@H](O)[C@@H]2O)c(=O)n1 [cytarabine]
- IC50 ([5]; after 5-azacitidine (dCK upregulation)): 0.55 µM
- IC50 ([5]; before 5-azacitidine): 12.5 µM
